Experimental data reported in the NIST ThermoML archive (doi:10.1021/je900311v).

Experiments:
[1] = 298.15 K; 101.33 kPa; Liquid
[2] = excess molar enthalpy (molar enthalpy of mixing); xn = mol fraction of the nth substance listed; conditions: 298.15 K, 101 kPa, Liquid, Calvet calorimetry

CCCCCCCCCCCCCCCC [hexadecane]
Conditions	mass density [kg/m3]
[1]	770.31

CCCCCC(=O)CC [3-octanone] + CCCCCCCCCCCC
[2]
Conditions	excess molar enthalpy [kcal/mol]
x1 = 0.0352	0.0408
x1 = 0.0679	0.0749
x1 = 0.0985	0.102
x1 = 0.1272	0.126
x1 = 0.1541	0.145
x1 = 0.1794	0.162
x1 = 0.2078	0.178
x1 = 0.2344	0.192
x1 = 0.2592	0.203
x1 = 0.2824	0.212
x1 = 0.3042	0.22
x1 = 0.3248	0.226
x1 = 0.3477	0.232
x1 = 0.3691	0.236
x1 = 0.3892	0.239
x1 = 0.408	0.242
x1 = 0.4257	0.243
x1 = 0.445	0.244
x1 = 0.4631	0.245
x1 = 0.48	0.245
x1 = 0.4959	0.245
x1 = 0.5109	0.244
x1 = 0.525	0.243
x1 = 0.5383	0.242
x1 = 0.5524	0.24
x1 = 0.5657	0.237
x1 = 0.5782	0.235
x1 = 0.5798	0.233
x1 = 0.59	0.233
x1 = 0.5925	0.231
x1 = 0.6057	0.229
x1 = 0.6194	0.226
x1 = 0.632	0.222
x1 = 0.6451	0.219
x1 = 0.6588	0.215
x1 = 0.673	0.21
x1 = 0.6855	0.207
x1 = 0.6985	0.201
x1 = 0.712	0.196
x1 = 0.726	0.19
x1 = 0.7405	0.183
x1 = 0.7557	0.176
x1 = 0.7693	0.17
x1 = 0.7833	0.162
x1 = 0.798	0.154
x1 = 0.8133	0.146
x1 = 0.8289	0.136
x1 = 0.8453	0.126
x1 = 0.8592	0.116
x1 = 0.8735	0.106
x1 = 0.8883	0.0958
x1 = 0.9036	0.0842
x1 = 0.9194	0.0717
x1 = 0.9358	0.0585
x1 = 0.9511	0.0454
x1 = 0.9668	0.0313
x1 = 0.9831	0.0161

CCCCCCCCCCCC [dodecane]
Conditions	mass density [kg/m3]
[1]	745.28

CCCCCC(=O)CC [3-octanone] + CCCCCCCCCCCCCCCC
[2]
Conditions	excess molar enthalpy [kcal/mol]
x1 = 0.0448	0.0548
x1 = 0.0857	0.0987
x1 = 0.1233	0.134
x1 = 0.1578	0.163
x1 = 0.1899	0.187
x1 = 0.2195	0.207
x1 = 0.2522	0.227
x1 = 0.2824	0.243
x1 = 0.3102	0.255
x1 = 0.336	0.265
x1 = 0.3599	0.273
x1 = 0.3822	0.279
x1 = 0.4079	0.284
x1 = 0.4316	0.288
x1 = 0.4534	0.29
x1 = 0.4737	0.292
x1 = 0.4956	0.292
x1 = 0.5158	0.291
x1 = 0.5345	0.29
x1 = 0.5517	0.288
x1 = 0.5677	0.286
x1 = 0.5827	0.283
x1 = 0.5995	0.279
x1 = 0.615	0.276
x1 = 0.6293	0.272
x1 = 0.6426	0.268
x1 = 0.655	0.264
x1 = 0.6775	0.253
x1 = 0.69	0.248
x1 = 0.7029	0.243
x1 = 0.7163	0.237
x1 = 0.7302	0.231
x1 = 0.7423	0.225
x1 = 0.7547	0.218
x1 = 0.7676	0.211
x1 = 0.7809	0.204
x1 = 0.7947	0.195
x1 = 0.809	0.186
x1 = 0.8216	0.177
x1 = 0.8347	0.168
x1 = 0.8482	0.157
x1 = 0.8621	0.146
x1 = 0.8741	0.136
x1 = 0.8865	0.125
x1 = 0.8993	0.113
x1 = 0.9124	0.1
x1 = 0.9259	0.0866
x1 = 0.9375	0.0746
x1 = 0.9494	0.0618
x1 = 0.9615	0.0478
x1 = 0.974	0.033
x1 = 0.9868	0.0169

CCCCCCC(C)=O [2-octanone] + CCCCCCCCCCCCCC
[2]
Conditions	excess molar enthalpy [kcal/mol]
x1 = 0.0383	0.0506
x1 = 0.0737	0.0908
x1 = 0.1066	0.123
x1 = 0.1373	0.15
x1 = 0.1659	0.173
x1 = 0.1927	0.191
x1 = 0.2226	0.209
x1 = 0.2504	0.223
x1 = 0.2763	0.235
x1 = 0.3005	0.244
x1 = 0.3231	0.252
x1 = 0.3443	0.258
x1 = 0.3678	0.263
x1 = 0.3898	0.267
x1 = 0.4102	0.27
x1 = 0.4151	0.273
x1 = 0.4243	0.274
x1 = 0.4339	0.275
x1 = 0.444	0.275
x1 = 0.4546	0.276
x1 = 0.4657	0.276
x1 = 0.4756	0.276
x1 = 0.486	0.276
x1 = 0.4968	0.275
x1 = 0.5082	0.275
x1 = 0.52	0.274
x1 = 0.5304	0.272
x1 = 0.5412	0.271
x1 = 0.5525	0.27
x1 = 0.5643	0.268
x1 = 0.5765	0.265
x1 = 0.5893	0.263
x1 = 0.6004	0.26
x1 = 0.612	0.257
x1 = 0.624	0.254
x1 = 0.6364	0.25
x1 = 0.6494	0.246
x1 = 0.6629	0.241
x1 = 0.6753	0.237
x1 = 0.6882	0.232
x1 = 0.7016	0.226
x1 = 0.7155	0.22
x1 = 0.73	0.213
x1 = 0.7451	0.205
x1 = 0.7709	0.191
x1 = 0.7844	0.183
x1 = 0.7985	0.175
x1 = 0.8131	0.165
x1 = 0.8282	0.155
x1 = 0.8413	0.146
x1 = 0.8549	0.136
x1 = 0.8689	0.125
x1 = 0.8834	0.113
x1 = 0.8983	0.101
x1 = 0.9138	0.0873
x1 = 0.9271	0.0752
x1 = 0.9409	0.0622
x1 = 0.955	0.0482
x1 = 0.9695	0.0332
x1 = 0.9845	0.017

CCCCCCC(C)=O [2-octanone] + CCCCCCCCCCCC
[2]
Conditions	excess molar enthalpy [kcal/mol]
x1 = 0.035	0.0456
x1 = 0.0677	0.0821
x1 = 0.0982	0.111
x1 = 0.1267	0.136
x1 = 0.1564	0.159
x1 = 0.1841	0.177
x1 = 0.2101	0.193
x1 = 0.2345	0.205
x1 = 0.2613	0.217
x1 = 0.2862	0.226
x1 = 0.3096	0.234
x1 = 0.3314	0.24
x1 = 0.3519	0.245
x1 = 0.3712	0.248
x1 = 0.3931	0.252
x1 = 0.4135	0.254
x1 = 0.4325	0.255
x1 = 0.4499	0.255
x1 = 0.4504	0.256
x1 = 0.4596	0.256
x1 = 0.4698	0.256
x1 = 0.4804	0.256
x1 = 0.4915	0.256
x1 = 0.5031	0.255
x1 = 0.5138	0.255
x1 = 0.525	0.253
x1 = 0.5366	0.252
x1 = 0.5488	0.251
x1 = 0.5615	0.249
x1 = 0.5749	0.246
x1 = 0.5866	0.244
x1 = 0.5986	0.241
x1 = 0.6133	0.238
x1 = 0.6244	0.235
x1 = 0.6381	0.231
x1 = 0.6525	0.227
x1 = 0.6658	0.222
x1 = 0.6795	0.217
x1 = 0.6938	0.212
x1 = 0.7072	0.206
x1 = 0.721	0.2
x1 = 0.7355	0.193
x1 = 0.7505	0.186
x1 = 0.7661	0.177
x1 = 0.7808	0.17
x1 = 0.7961	0.161
x1 = 0.812	0.151
x1 = 0.8265	0.142
x1 = 0.8414	0.133
x1 = 0.857	0.122
x1 = 0.873	0.11
x1 = 0.8877	0.0994
x1 = 0.9032	0.0876
x1 = 0.9191	0.0745
x1 = 0.9356	0.0608
x1 = 0.9509	0.047
x1 = 0.9667	0.0326
x1 = 0.9831	0.0167

CCCCCC(=O)CC [3-octanone] + CCCCCCCCCCCCCC
[2]
Conditions	excess molar enthalpy [kcal/mol]
x1 = 0.0384	0.0466
x1 = 0.074	0.0845
x1 = 0.107	0.116
x1 = 0.1377	0.141
x1 = 0.1664	0.163
x1 = 0.1933	0.181
x1 = 0.2233	0.198
x1 = 0.2512	0.213
x1 = 0.2771	0.224
x1 = 0.3013	0.233
x1 = 0.324	0.241
x1 = 0.3452	0.247
x1 = 0.3687	0.252
x1 = 0.3907	0.257
x1 = 0.4111	0.26
x1 = 0.4303	0.262
x1 = 0.4482	0.263
x1 = 0.465	0.264
x1 = 0.4833	0.264
x1 = 0.5005	0.264
x1 = 0.5166	0.263
x1 = 0.5316	0.261
x1 = 0.5458	0.259
x1 = 0.5618	0.257
x1 = 0.5762	0.254
x1 = 0.5904	0.251
x1 = 0.6033	0.248
x1 = 0.6131	0.245
x1 = 0.6255	0.242
x1 = 0.6385	0.239
x1 = 0.6519	0.235
x1 = 0.666	0.23
x1 = 0.6781	0.226
x1 = 0.6906	0.221
x1 = 0.7037	0.216
x1 = 0.7172	0.21
x1 = 0.7313	0.204
x1 = 0.7459	0.197
x1 = 0.7586	0.19
x1 = 0.7716	0.183
x1 = 0.7852	0.176
x1 = 0.7992	0.167
x1 = 0.8138	0.158
x1 = 0.8288	0.149
x1 = 0.8419	0.14
x1 = 0.8555	0.13
x1 = 0.8694	0.12
x1 = 0.8838	0.109
x1 = 0.8988	0.0967
x1 = 0.9142	0.0835
x1 = 0.9552	0.0458
x1 = 0.9696	0.0313
x1 = 0.9846	0.0167

CCCCCCCCCCCCCC [tetradecane]
Conditions	mass density [kg/m3]
[1]	760.2

CCCCCCC(C)=O [2-octanone]
Conditions	mass density [kg/m3]
[1]	814.28

CCCCCCC(C)=O [2-octanone] + CCCCCCCCCCCCCCCC
[2]
Conditions	excess molar enthalpy [kcal/mol]
x1 = 0.0446	0.0598
x1 = 0.0854	0.107
x1 = 0.1228	0.144
x1 = 0.1573	0.175
x1 = 0.1926	0.202
x1 = 0.2251	0.223
x1 = 0.255	0.241
x1 = 0.2827	0.255
x1 = 0.3084	0.266
x1 = 0.3324	0.274
x1 = 0.3585	0.282
x1 = 0.3826	0.288
x1 = 0.405	0.292
x1 = 0.4258	0.295
x1 = 0.448	0.298
x1 = 0.4685	0.299
x1 = 0.4876	0.299
x1 = 0.4933	0.3
x1 = 0.5044	0.3
x1 = 0.5161	0.299
x1 = 0.5282	0.299
x1 = 0.541	0.298
x1 = 0.5519	0.297
x1 = 0.5633	0.295
x1 = 0.5751	0.294
x1 = 0.5874	0.291
x1 = 0.6003	0.289
x1 = 0.6138	0.286
x1 = 0.6257	0.283
x1 = 0.6508	0.275
x1 = 0.6642	0.27
x1 = 0.6781	0.265
x1 = 0.6926	0.259
x1 = 0.7048	0.254
x1 = 0.7174	0.248
x1 = 0.737	0.241
x1 = 0.7443	0.234
x1 = 0.7583	0.226
x1 = 0.7732	0.217
x1 = 0.7861	0.209
x1 = 0.7993	0.2
x1 = 0.8131	0.19
x1 = 0.8273	0.18
x1 = 0.84	0.17
x1 = 0.8531	0.159
x1 = 0.8666	0.148
x1 = 0.8805	0.135
x1 = 0.8949	0.122
x1 = 0.9075	0.109
x1 = 0.9204	0.0961
x1 = 0.9337	0.0819
x1 = 0.9473	0.0667
x1 = 0.9614	0.0499
x1 = 0.9739	0.0346
x1 = 0.9868	0.0177

CCCCCC(=O)CC [3-octanone]
Conditions	mass density [kg/m3]
[1]	817.77
